Laboratory results from US20070219224A1, “Compositions and Methods Relating to Pyrimidine Synthesis Inhibitors” (UAB RESEARCH FOUNDATION, THE, priority 2004, published 2007).
“Also recorded” adds a separate entry of the source. Where two headings read alike, the source gives them in different places.

Experiments:
uninfected BALB/c mice = assay: Alveolar fluid clearance (AFC) in uninfected or mock-infected mice; format: in vivo; details: for effect on AFC in uninfected / normal (mock-infected) mice (in words): leflunomide oral gavage
Method: Systemic inhibition of de novo pyrimidine and purine synthesis. […] Vehicle controls were gavaged with an equivalent volume of 1% methylcellulose in distilled water. Uridine (1 g/kg in 0.9% NaCl) was administered by i.p. injection every 12 hours in a volume of 100 μl (8). […]
(§1) AFC studies were performed on anesthetized, ventilated BALB/c mice with normal body temperature and blood gases, over a 30 minute period after intratracheal instillation of 0.3 ml of isosmolar NaCl containing 5% fatty acid-free BSA. The number of mice analyzed per group is listed in the relevant bar of each graph.

[1] = format: in vivo; details: for body weight loss after RSV infection: D1 and d2 p.i., versus untreated RSV-infected mice
Method: Preparation of viral inocula and infection of mice. Preparation of viral stocks and intranasal infection of eight to twelve week-old pathogen-free BALB/c mice of either sex with RSV strain A2 (10^6 PFU in 100 μl) were performed as described in Davis et al., “Nucleotide-mediated inhibition of alveolar fluid clearance in BALB/c mice after respiratory syncytial virus infection,” Am. J. Physiol. Lung Cell Mol. Physiol. 286:L112-L120. (2004). Data for each experimental group was derived from a minimum of 2 independent infections.
Systemic inhibition of de novo pyrimidine and purine synthesis. Leflunomide (5-methylisoxazole-4-[4-trifluoromethyl]carboxanilide, 35 mg/kg in distilled water containing 1% methylcellulose) was administered once daily by oral gavage in a volume of 300 μl/mouse for 8 days prior to infection, then throughout the infection period. Vehicle controls were gavaged with an equivalent volume of 1% methylcellulose in distilled water. […]

RSV-infected BALB/c mice = assay: Alveolar fluid clearance (AFC) in RSV-infected mice at day 2 p.i.; format: in vivo; details: for effect on RSV-mediated inhibition of AFC at d2 (in words): systemic treatment (leflunomide oral gavage; uridine, 6-MP i.p.)
Method: Preparation of viral inocula and infection of mice. […] J. Physiol. Lung Cell Mol. Physiol. […] Data for each experimental group was derived from a minimum of 2 independent infections.
Systemic inhibition of de novo pyrimidine and purine synthesis. Leflunomide (5-methylisoxazole-4-[4-trifluoromethyl]carboxanilide, 35 mg/kg in distilled water containing 1% methylcellulose) was administered once daily by oral gavage in a volume of 300 μl/mouse for 8 days prior to infection, then throughout the infection period. Vehicle controls were gavaged with an equivalent volume of 1% methylcellulose in distilled water.
To systemically block de novo pyrimidine synthesis, mice were gavaged once daily for 8 days with […] of the dihydro-orotate reductase (DHOR) inhibitor leflunomide ([…] suspended in 1% methylcellulose) or vehicle prior to infection, then at 0 and 24 hours p.i. AFC studies were performed at 48 hours p.i., with no additions to the AFC instillate.
as §1

SMILES: Cc1oncc1C(=O)Nc1ccc(C(F)(F)F)cc1 [Leflunomide, 5-methylisoxazole-4-[4-trifluoromethyl]carboxanilide]
- effect on AFC in uninfected / normal (mock-infected) mice (in words) (uninfected BALB/c mice): no detrimental effect on AFC
- effect on AFC in uninfected / normal (mock-infected) mice (in words) (uninfected BALB/c mice; listed as LEF): no effect on AFC
- effect on AFC in uninfected / normal (mock-infected) mice (in words) (uninfected BALB/c mice; listed as leflunomide): significant inhibition of AFC
- AFC30BASAL (mean % basal AFC after 30 minutes ± SE) (uninfected BALB/c mice; mock-infected mice, leflunomide 5 mg/kg oral gavage once daily): 33.16 ± 2.40 %
- AFC (mean % AFC ± SE) (uninfected BALB/c mice; uninfected mice, leflunomide-treated): 29.98 ± 1.5 %
- body weight loss after RSV infection [1]: significantly reduced the degree of weight loss
- body weight loss after RSV infection ([1]; listed as LEF): significant reduction in weight loss
- body weight loss after RSV infection ([1]; listed as leflunomide): significantly reduced the degree of weight loss
- body weight during the pretreatment (preinfection) period ([1]; before RSV infection, leflunomide 8 days, 6-MP 5 days): no significant decline in body weight
- toxicity (inferred from body weight) ([1]; mouse, in vivo): very limited leflunomide toxicity
- amiloride-sensitive part of AFC (RSV-infected BALB/c mice; RSV-infected leflunomide-treated mice at d2 (61% in uninfected, −8% in untreated mice at d2)): 57%
- AFC30BASAL (mean % basal AFC after 30 minutes ± SE) (RSV-infected BALB/c mice; RSV-infected mice, day 2 p.i., leflunomide 5 mg/kg oral gavage once daily, uridine 1 mg/kg i.p. q12h): 33.4 ± 3.00 %
- effect on RSV-mediated inhibition of AFC at d2 (in words) (RSV-infected BALB/c mice): blocked RSV-induced inhibition of AFC
- effect on RSV-mediated inhibition of AFC at d2 (in words) (RSV-infected BALB/c mice; listed as LEF): reverses RSV-mediated inhibition of AFC
- effect on RSV-mediated inhibition of AFC at d2 (in words) (RSV-infected BALB/c mice; listed as leflunomide): prevented RSV-induced inhibition of AFC; also recorded: reversed the inhibitory effect of RSV on AFC
